According to ChEMBL document CHEMBL4373715, “Discovery and Biological Evaluations of Halogenated 2,4-Diphenyl Indeno[1,2-b]pyridinol Derivatives as Potent Topoisomerase IIα-Targeted Chemotherapeutic Agents for Breast Cancer” (J Med Chem, 2019):

Assays:
[1] = tested on: T47D; assay: Antiproliferative activity against human T47D cells measured after 72 hrs by EZ-Cytox assay; type: functional, cell-based
[2] = tested on: HCT-15; assay: Antiproliferative activity against human HCT15 cells measured after 72 hrs by EZ-Cytox assay; type: functional, cell-based; conditions: HCT-15, 72 h
[3] = tested on: HeLa; assay: Antiproliferative activity against human HeLa cells measured after 72 hrs by EZ-Cytox assay; type: functional, cell-based
[4] = tested on: DU-145; assay: Antiproliferative activity against human DU145 cells measured after 72 hrs by EZ-Cytox assay; type: functional, cell-based; conditions: DU-145, 72 h
[5] = molecular target: T1, DNA topoisomerase 1 (Homo sapiens) (UniProt P11387); assay: Inhibition of recombinant human topoisomerase 1-mediated relaxation of supercoiled pBR322 DNA at 100 uM measured after 30 mins by ethidium bromide staining based agarose gel electrophoresis relative to control
T1 sequence (whole entry): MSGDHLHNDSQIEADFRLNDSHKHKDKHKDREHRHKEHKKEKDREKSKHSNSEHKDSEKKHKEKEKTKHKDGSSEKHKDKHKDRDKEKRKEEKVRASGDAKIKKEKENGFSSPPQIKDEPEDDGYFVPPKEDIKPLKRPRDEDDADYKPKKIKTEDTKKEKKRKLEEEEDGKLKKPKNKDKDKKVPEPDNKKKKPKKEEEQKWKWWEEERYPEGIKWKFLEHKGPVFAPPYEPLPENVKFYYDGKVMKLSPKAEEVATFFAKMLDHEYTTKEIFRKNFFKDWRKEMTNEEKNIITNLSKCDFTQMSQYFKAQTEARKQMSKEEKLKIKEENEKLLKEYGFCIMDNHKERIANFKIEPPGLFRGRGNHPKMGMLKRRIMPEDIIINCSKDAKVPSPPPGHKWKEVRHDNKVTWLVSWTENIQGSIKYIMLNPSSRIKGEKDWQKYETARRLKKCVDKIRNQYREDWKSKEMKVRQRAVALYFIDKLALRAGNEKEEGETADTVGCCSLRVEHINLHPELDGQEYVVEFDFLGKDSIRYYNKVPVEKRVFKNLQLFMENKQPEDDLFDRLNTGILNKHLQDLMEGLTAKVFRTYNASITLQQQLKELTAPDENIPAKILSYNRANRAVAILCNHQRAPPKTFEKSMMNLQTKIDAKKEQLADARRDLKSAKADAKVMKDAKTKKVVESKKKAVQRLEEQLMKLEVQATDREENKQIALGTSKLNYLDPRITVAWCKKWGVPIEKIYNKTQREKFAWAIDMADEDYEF

[6] = molecular target: DNA topoisomerase 2-alpha (Homo sapiens) (UniProt P11388); assay: Inhibition of recombinant human topoisomerase 2alpha-mediated relaxation of supercoiled pBR322 DNA at 100 uM measured after 30 mins by ethidium bromide staining based agarose gel electrophoresis relative to control
DNA topoisomerase 2-alpha (Homo sapiens), sequence (P11388 whole entry): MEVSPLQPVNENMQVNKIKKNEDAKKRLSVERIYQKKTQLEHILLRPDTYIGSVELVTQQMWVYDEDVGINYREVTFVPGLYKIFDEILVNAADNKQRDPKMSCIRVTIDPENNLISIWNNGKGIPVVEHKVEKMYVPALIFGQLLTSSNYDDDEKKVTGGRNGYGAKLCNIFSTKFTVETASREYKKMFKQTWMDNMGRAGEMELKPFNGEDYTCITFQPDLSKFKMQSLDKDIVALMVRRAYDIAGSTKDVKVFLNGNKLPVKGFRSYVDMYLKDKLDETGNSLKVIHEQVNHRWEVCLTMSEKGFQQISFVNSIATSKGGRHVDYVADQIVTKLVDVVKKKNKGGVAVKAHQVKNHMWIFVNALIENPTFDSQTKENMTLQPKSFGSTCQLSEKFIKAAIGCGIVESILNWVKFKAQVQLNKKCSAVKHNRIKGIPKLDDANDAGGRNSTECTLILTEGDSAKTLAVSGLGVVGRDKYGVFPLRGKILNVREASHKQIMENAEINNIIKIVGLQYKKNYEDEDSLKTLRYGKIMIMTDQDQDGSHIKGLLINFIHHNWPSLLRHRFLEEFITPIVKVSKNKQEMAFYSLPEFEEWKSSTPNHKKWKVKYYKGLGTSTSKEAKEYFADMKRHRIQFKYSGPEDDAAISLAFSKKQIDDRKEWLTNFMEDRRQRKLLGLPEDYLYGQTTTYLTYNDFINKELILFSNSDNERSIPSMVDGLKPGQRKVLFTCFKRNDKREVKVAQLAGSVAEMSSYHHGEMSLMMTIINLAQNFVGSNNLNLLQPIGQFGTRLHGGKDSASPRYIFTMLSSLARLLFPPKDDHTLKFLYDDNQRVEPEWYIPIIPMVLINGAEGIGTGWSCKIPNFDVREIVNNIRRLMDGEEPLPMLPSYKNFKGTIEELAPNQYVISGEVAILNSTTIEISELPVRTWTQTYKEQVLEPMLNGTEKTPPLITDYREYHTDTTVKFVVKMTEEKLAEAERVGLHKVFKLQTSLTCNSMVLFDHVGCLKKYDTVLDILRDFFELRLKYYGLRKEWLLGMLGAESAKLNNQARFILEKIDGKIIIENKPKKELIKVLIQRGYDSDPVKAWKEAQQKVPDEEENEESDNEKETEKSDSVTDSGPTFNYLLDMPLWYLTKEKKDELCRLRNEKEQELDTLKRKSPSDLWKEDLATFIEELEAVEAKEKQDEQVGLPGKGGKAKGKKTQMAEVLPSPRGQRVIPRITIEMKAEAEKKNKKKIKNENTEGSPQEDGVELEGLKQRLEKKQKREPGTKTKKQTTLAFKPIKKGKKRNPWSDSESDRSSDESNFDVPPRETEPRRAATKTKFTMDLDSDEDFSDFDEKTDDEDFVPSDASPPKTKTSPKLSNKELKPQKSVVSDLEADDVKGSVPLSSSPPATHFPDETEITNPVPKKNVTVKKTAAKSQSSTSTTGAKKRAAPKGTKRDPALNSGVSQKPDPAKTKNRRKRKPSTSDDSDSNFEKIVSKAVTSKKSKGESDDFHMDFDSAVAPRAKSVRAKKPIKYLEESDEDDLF

inhibition [5]	inhibition [6]	Compound	IC50 [1]	IC50 [2]	IC50 [3]	IC50 [4]
0%	24.4%	Oc1ccc(-c2cc(-c3cccc(Cl)c3)nc3c2Cc2cccc(O)c2-3)cc1	0.83 µM	1.3 µM	6.23 µM	0.03 µM
10.2%	4%	Oc1ccc(-c2cc(-c3ccccc3)nc3c2Cc2cccc(O)c2-3)cc1	> 50 µM	> 50 µM	> 50 µM	4.13 µM
2.3%	12.9%	Oc1ccc(-c2cc(-c3cccc(C(F)(F)F)c3)nc3c2Cc2cccc(O)c2-3)cc1	9.57 µM	4.77 µM	16.8 µM	44.1 µM
0%	24.1%	Oc1ccccc1-c1cc(-c2ccccc2F)nc2c1Cc1c(O)cccc1-2	1.77 µM	3.39 µM	4.18 µM	2.71 µM
0%	6%	Oc1ccc2c(c1)Cc1c(-c3ccccc3O)cc(-c3ccc(F)cc3)nc1-2	3.14 µM	4.61 µM	14.3 µM	4.76 µM
2.3%	27.3%	Oc1cccc(-c2cc(-c3ccc(F)cc3)nc3c2Cc2cccc(O)c2-3)c1	2.24 µM	4.04 µM	8.81 µM	3.3 µM
8.7%	4.5%	Oc1ccc(-c2cc(-c3cccc(F)c3)nc3c2Cc2cc(O)ccc2-3)cc1	1.34 µM	3.57 µM	6.76 µM	1.44 µM
9.7%	22.4%	Oc1cccc(-c2cc(-c3ccccc3F)nc3c2Cc2c(O)cccc2-3)c1	2.71 µM	4.98 µM	6.75 µM	2.03 µM
6%	2.4%	Oc1ccc(-c2cc(-c3ccccc3)nc3c2Cc2ccc(O)cc2-3)cc1	2.99 µM	> 50 µM	> 50 µM	1.38 µM
0.7%	10.9%	Oc1cccc(-c2cc(-c3ccc(C(F)(F)F)cc3)nc3c2Cc2c(O)cccc2-3)c1	6.15 µM	6.98 µM	6.3 µM	5.01 µM
6.6%	1.1%	Oc1ccccc1-c1cc(-c2ccccc2)c2c(n1)-c1cccc(O)c1C2	6.43 µM	> 50 µM	1.83 µM	2.49 µM
0%	0%	Oc1cccc(-c2cc(-c3ccccc3)c3c(n2)-c2c(O)cccc2C3)c1	3.68 µM	> 50 µM	> 50 µM	0.43 µM
0%	8.4%	Oc1ccccc1-c1cc(-c2cccc(F)c2)nc2c1Cc1cccc(O)c1-2	0.74 µM	5.03 µM	7.9 µM	9.97 µM
14%	17.8%	Oc1cccc(-c2cc(-c3cccc(F)c3)nc3c2Cc2cccc(O)c2-3)c1	1.16 µM	> 50 µM	15 µM	0.94 µM
5.4%	15.3%	Oc1ccc(-c2cc(-c3ccccc3F)nc3c2Cc2c(O)cccc2-3)cc1	0.87 µM	2.81 µM	6.19 µM	1.81 µM
3%	6.2%	Oc1ccc(-c2cc(-c3cccc(F)c3)nc3c2Cc2ccc(O)cc2-3)cc1	0.7 µM	4.49 µM	8.63 µM	4.83 µM
0.5%	1.2%	Oc1cccc(-c2cc(-c3ccccc3)nc3c2Cc2ccc(O)cc2-3)c1	0.84 µM	1.37 µM	1.38 µM	1.57 µM
8.6%	0.7%	Oc1ccc(-c2cc(-c3cccc(F)c3)nc3c2Cc2c(O)cccc2-3)cc1	0.57 µM	4.75 µM	7.3 µM	2.04 µM
0%	2.8%	Oc1ccc2c(c1)-c1nc(-c3ccccc3O)cc(-c3ccccc3)c1C2	> 50 µM	> 50 µM	> 50 µM	1.87 µM

inhibition [5]	inhibition [6]	Compound	IC50 [1]	IC50 [2]	IC50 [3]	IC50 [4]
16.3%	28.1%	Oc1cccc(-c2cc(-c3ccccc3F)nc3c2Cc2ccc(O)cc2-3)c1	2.97 µM	2.96 µM	3.74 µM	0.4 µM
0%	23.3%	Oc1ccc2c(c1)-c1nc(-c3ccc(F)cc3)cc(-c3ccccc3O)c1C2	0.19 µM	3.13 µM	4.38 µM	3.49 µM
1.1%	3.7%	Oc1ccc(-c2cc(-c3ccccc3)c3c(n2)-c2c(O)cccc2C3)cc1	11.6 µM	> 50 µM	2.06 µM	0.66 µM
3.3%	6.4%	Oc1ccc(-c2cc(-c3ccccc3F)nc3c2Cc2ccc(O)cc2-3)cc1	29.2 µM	> 50 µM	> 50 µM	14.1 µM
2%	19%	Oc1ccc2c(c1)Cc1c(-c3ccccc3)cc(-c3ccccc3O)nc1-2	> 50 µM	> 50 µM	> 50 µM	1.62 µM
1%	1.2%	Oc1ccccc1-c1cc(-c2ccccc2)c2c(n1)-c1c(O)cccc1C2	> 50 µM	> 50 µM	> 50 µM	9.61 µM
0%	28%	Oc1ccc2c(c1)Cc1c(-c3ccccc3O)cc(-c3cccc(F)c3)nc1-2	0.86 µM	4.23 µM	2.43 µM	3.13 µM
0%	27%	Oc1ccc2c(c1)-c1nc(-c3ccccc3F)cc(-c3ccccc3O)c1C2	0.61 µM	2.98 µM	4.36 µM	4.07 µM
0%	13.4%	Oc1ccc2c(c1)Cc1c(-c3ccccc3O)cc(-c3ccccc3F)nc1-2	0.7 µM	3.37 µM	4.94 µM	3.82 µM
4.4%	1.5%	Oc1ccc(-c2cc(-c3ccccc3)nc3c2Cc2c(O)cccc2-3)cc1	2.89 µM	2.78 µM	1.94 µM	1.28 µM
1.6%	6.3%	Oc1cccc(-c2cc(-c3ccccc3)nc3c2Cc2cccc(O)c2-3)c1	2.01 µM	1.48 µM	2.03 µM	0.72 µM
11.1%	2.5%	Oc1ccc(-c2cc(-c3ccccc3)nc3c2Cc2cc(O)ccc2-3)cc1	3.55 µM	> 50 µM	2.75 µM	2.48 µM
4%	8.7%	Oc1cccc(-c2cc(-c3ccccc3F)nc3c2Cc2cccc(O)c2-3)c1	0.83 µM	8.33 µM	12.1 µM	1.88 µM
12.2%	10.6%	Oc1ccc(-c2cc(-c3ccccc3F)nc3c2Cc2cc(O)ccc2-3)cc1	1.39 µM	3.01 µM	4.84 µM	1.26 µM
5.3%	4.4%	Oc1ccc(-c2cc(-c3ccccc3)c3c(n2)-c2cccc(O)c2C3)cc1	6.23 µM	1.02 µM	5.74 µM	0.37 µM
26.2%	27.8%	Oc1cccc(-c2cc(-c3ccc(F)cc3)nc3c2Cc2c(O)cccc2-3)c1	1.72 µM	2.68 µM	6.71 µM	0.56 µM
0%	28.3%	Oc1ccc2c(c1)-c1nc(-c3cccc(F)c3)cc(-c3ccccc3O)c1C2	0.68 µM	2.9 µM	4.22 µM	0.86 µM
0.4%	4.5%	Oc1cccc(-c2cc(-c3ccccc3)c3c(n2)-c2cccc(O)c2C3)c1	3.92 µM	1.58 µM	6.2 µM	0.52 µM
0%	0.6%	Oc1ccccc1-c1cc(-c2ccccc2F)nc2c1Cc1cccc(O)c1-2	4.56 µM	3.76 µM	7.63 µM	9.9 µM
